Results published in paper PMC5415608, “The Effects of Herbicides Targeting Aromatic and Branched Chain Amino Acid Biosynthesis Support the Presence of Functional Pathways in Broomrape” (Frontiers in Plant Science, 2017).

Tests used:
[1] = tested on: T1, ALS (P. aegyptiaca acetolactate synthase); assay: colorimetric acetoin assay (creatine/alpha-naphthol, […] nm), partially purified extract; type: biochemical, Phelipanche aegyptiaca; settings: flowering shoot enzyme; 167 mM pyruvate, 16.7 mM MgCl2, 1.67 mM TPP, 16.6 μM FAD, pH 7.0, 37°C, 60 min; read-out: ID50 (the source's name)
T1 construct: single gene copy found; predicted 42-residue chloroplast transit peptide

[2] = tested on: T2, EPSPS (P. aegyptiaca 5-enolpyruvylshikimate-3-phosphate synthase); assay: colorimetric phosphate release assay ([…] nm), partially purified extract; type: biochemical, Phelipanche aegyptiaca; settings: callus enzyme; 1 mM shikimate-3-phosphate (natural substrate), 0.1 mM phosphoenolpyruvate, 500 mM MES pH 5.5, 2 mM DTT, 30°C, 15 min; read-out: ID50 (the source's name)
T2 construct: single gene copy found; predicted 64-residue chloroplast transit peptide

[3] = tested on: T3, ALS from young tomato leaves; assay: colorimetric acetoin assay (creatine/alpha-naphthol, […] nm), partially purified extract; type: biochemical, Solanum lycopersicum; settings: young leaf enzyme; 167 mM pyruvate, 16.7 mM MgCl2, 1.67 mM TPP, 16.6 μM FAD, pH 7.0, 37°C, 60 min; read-out: ID50 (the source's name)
T3 construct: gene ALS1; native, partially purified extract of young tomato leaves

`CCS(=O)(=O)c1cccnc1S(=O)(=O)NC(=O)Nc1nc(OC)cc(OC)n1` [rimsulfuron] showed an IC50 [1] of 110 ± 30 nM.

Work on `O=C(O)CNCP(=O)(O)O` [glyphosate] yielded an IC50 [2] of ~8000 nM.

Compound `Cc1cnc(C2=NC(C)(C(C)C)C(=O)N2)c(C(=O)O)c1` (centres unmarked) [imazapic] has an IC50 [3] of ~470 nM and an IC50 [1] of 2070 ± 70 nM.

With `CC(C)C1(C)N=C(c2ncccc2C(=O)O)NC1=O` (centres unmarked) [imazapyr] the IC50 [1] was 11600 ± 1200 nM.
